Laboratory results: patent US8088804B2, “N-hydroxyamide derivatives possessing antibacterial activity” (Pfizer Inc., priority 2005, dated 2012)
In brackets after ≈: the same amount, converted by molar mass.

Experiments:
E. coli tolC = assay: Susceptibility testing (MIC, CLSI microdilution); assay type: cell-based, Escherichia coli; details: 20 h at 35° C., unit assumed
Description: (§1) Compounds were tested following the microdilution method of CLSI (Clinical and Laboratory Standards Institute. Methods for dilution antimicrobial susceptibility tests for bacteria that grow aerobically; Approved standard—sixth edition. CLSI document M7-A5, CLSI, Wayne, Pa. 2003). Assays were performed in sterile plastic 96-well microtiter trays with round bottom wells (Greiner).
(§2) Stock solutions of test compounds and control antibiotics were prepared at 10 mg/ml in DMSO. Serial 2-fold dilutions of each drug were performed in a microtiter plate across each row using DMSO as solvent at 100-fold the desired final concentration. Wells in columns #1-11 contain drug and column #12 was kept as a growth control for the organism with no drug. Each well in the mother plate was diluted with sterile deionized water and DMSO, mixed, and volumes of 10 μl distributed to each well in the resulting assay plates.
(§3) Stock cultures were prepared using the Microbank™ method (Pro-Lab Diagnostics) and stored at −80° C. To propagate each strain, one bead was removed from the frozen vial and aseptically streaked onto Trypticase Soy Agar (Difco) which were incubated at 35° C. Standardized inocula were prepared using the direct colony suspension method according to CLSI guidelines (Clinical and Laboratory Standards Institute. Methods for dilution antimicrobial susceptibility tests for bacteria that grow aerobically; Approved standard—sixth edition. CLSI document M7-A5, CLSI, Wayne, Pa., 2003). Isolated colonies were selected from an 18-24 hr agar plate and resuspended in 0.9% sterile saline to match a 0.5 McFarland turbidity standard using a calorimeter (Vitek) at 80% of transmitance. The suspension was used within 15 minutes of preparation.
(§4) Mueller-Hinton Broth (MHB) (Difco) was prepared at a 1.1× concentration and supplemented with Ca++ and Mg++ as recommended by CLSI. For each organism, the standardized suspension was diluted 1:180 into appropriate growth medium in a sterile reservoir. After mixing, wells in the drug-containing assay plates were inoculated with a volume of 90 μl. Thus, for each minimum inhibitory concentration (MIC) determination, each well contains a final volume of 100 μl with an inoculum size of approximately 5×10^5 colony forming units (cfu)/ml and no more than 1% DMSO.
(§5) The completed microtiter plates were incubated 20 h at 35° C. in ambient air. Optical density of each well was determined at 600 nm using a VersaMax Microplate reader (Molecular Devices, Sunnyvale, Calif.). The MIC was defined as the lowest drug concentration causing complete suppression of visible bacterial growth.

E. coli (2) = assay: Susceptibility testing (MIC, CLSI microdilution); assay type: cell-based, Escherichia coli; details: 20 h at 35° C., in µg/mL (unit assumed)
Description: as §1, §2, §3, §4, §5

P. aerug. Hypersuc = assay: Susceptibility testing (MIC, CLSI microdilution); assay type: cell-based, Pseudomonas aeruginosa; details: 20 h at 35° C., Δ efflux, hypersusceptible strain, unit assumed
Description: as §1, §2, §3, §4, §5

P. aerug. (2) = assay: Susceptibility testing (MIC, CLSI microdilution); assay type: cell-based, Pseudomonas aeruginosa; details: 20 h at 35° C., in µg/mL (unit assumed)
Description: as §1, §2, §3, §4, §5

P. ae LpxC enzyme = P. ae LpxC enzyme (Pseudomonas aeruginosa, UniProt P47205); assay: Enzyme inhibition testing (fluorescamine assay); assay type: biochemical; details: read-out: ENZYME (percent inhibition); for inhibition at 0.1 µg/mL: @0.1 μg/ml; for inhibition at 0.5 µg/mL: @0.5 μg/ml
Description: Compounds were tested based on a published method (Wang W., 2001, Anal Biochem, 290, 338-46) with modifications. Enzyme assays were performed in the assay buffer (50 mM HEPES, pH8, 0.005% Brij, 50 μM ZnSO4, 1 mg/ml BSA) in 96-well V-bottom microtiter plates.
Stock solutions of test compounds and control antibiotics are prepared at 10 mg/ml in DMSO and are diluted in the assay buffer to 6-fold the final testing concentration. 5 μl compound dilution is distributed to the well of the assay plate. EDTA is used as positive control and the final concentration in assay is 12.5 mM.
P. ae LpxC enzyme dilution in the assay buffer is added to the compound in plate and pre-incubated with the compound at room temperature for 10 min. LpxC substrate is added to initiate the enzyme reaction and the final enzyme and substrate concentrations are 1.2 μM and 0.4 mM, respectively. The reaction continues at RT for 4 hrs before diluted with 45 μl of Borate buffer (0.4 M, pH9), followed by addition of 40 μl derivatization reagent (fluorescamine 2 mg/ml DMF). This mixture is incubated at RT for 10 min followed by addition of 150 μl DMF/H2O (1:1). The resulting solution is loaded onto Millipore filter unit (Microcon 10 k MWCO) and spun at 13 k rpm on bench top centrifuge for 15 min. 100 μl of this filtrate is transferred to a low fluorescence clear-bottom 96-well plate (Corning) and the fluorescence is detected at ex360 nm and em465 nm on a Tecan fluorescence plate reader. The percent inhibition is calculated based on EDTA produces 100% inhibition and negative control produces 100% activity.

H. influen. = assay: Susceptibility testing (MIC, CLSI microdilution); assay type: cell-based, Haemophilus influenzae; details: 20 h at 35° C., unit assumed
Description: as §1, §2, §3, §4, §5

K. pneu. = assay: Susceptibility testing (MIC, CLSI microdilution); assay type: cell-based, Klebsiella pneumoniae; details: 20 h at 35° C., unit assumed
Description: as §1, §2, §3, §4, §5

Sequence of P. ae LpxC enzyme (P47205 whole entry): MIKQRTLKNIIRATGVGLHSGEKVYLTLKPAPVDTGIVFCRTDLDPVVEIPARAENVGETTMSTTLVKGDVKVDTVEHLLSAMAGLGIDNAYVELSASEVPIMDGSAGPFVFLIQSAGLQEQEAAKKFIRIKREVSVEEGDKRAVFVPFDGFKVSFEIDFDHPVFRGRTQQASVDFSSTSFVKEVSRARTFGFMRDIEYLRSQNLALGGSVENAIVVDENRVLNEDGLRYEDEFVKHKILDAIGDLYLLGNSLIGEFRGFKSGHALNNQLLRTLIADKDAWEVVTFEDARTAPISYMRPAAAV

O=C(NC(C(=O)NO)C(F)(F)F)c1ccc(-c2ccc(F)cc2)cc1 (racemic) [Compound 25, DL-4′-Fluoro-N-(1,1,1-trifluoro-3-(hydroxyamino)-3-oxopropan-2-yl)biphenyl-4-carboxamide]
MIC E. coli tolC (E. coli tolC): 4 mg/L (≈ 11.2 µM)
MIC E. coli (2) (E. coli (2)): 8
MIC P. aerug. Hypersuc (P. aerug. Hypersuc): 2 mg/L (≈ 5.61 µM)
MIC P. aerug. (2) (P. aerug. (2)): 8-16
inhibition at 0.1 µg/mL (P. ae LpxC enzyme): 12%
MIC H. influen. (H. influen.): 4 mg/L (≈ 11.2 µM)
MIC K. pneu. (K. pneu.): 16 mg/L (≈ 44.9 µM)

CCCc1ccc(-c2ccc(C(=O)N3CSC[C@H]3C(=O)NO)cc2)cc1 [Compound 16]
MIC E. coli tolC (E. coli tolC): 16 mg/L (≈ 43.2 µM)
MIC E. coli (2) (E. coli (2)): >64
MIC P. aerug. Hypersuc (P. aerug. Hypersuc): 16 mg/L (≈ 43.2 µM)
MIC P. aerug. (2) (P. aerug. (2)): >64
inhibition at 0.5 µg/mL (P. ae LpxC enzyme): 57%
MIC H. influen. (H. influen.): > 64 mg/L
MIC K. pneu. (K. pneu.): > 64 mg/L

CCCc1ccc(-c2ccc(C(=O)N3CC[C@H](NS(C)(=O)=O)[C@H]3C(=O)NO)cc2)cc1 [Compound 3, (2S,3S)-N-Hydroxy-3-(methylsulfonamido)-1-(4′-propylbiphenylcarbonyl)pyrrolidine-2-carboxamide]
MIC E. coli tolC (E. coli tolC): 32 mg/L (≈ 71.8 µM)
MIC E. coli (2) (E. coli (2)): >64
MIC P. aerug. Hypersuc (P. aerug. Hypersuc): > 64 mg/L
MIC P. aerug. (2) (P. aerug. (2)): >64
inhibition at 0.5 µg/mL (P. ae LpxC enzyme): 55%
MIC H. influen. (H. influen.): > 64 mg/L
MIC K. pneu. (K. pneu.): > 64 mg/L

CCOc1ccc(-c2ccc(C(=O)N3CCS(=O)(=O)[C@H]3C(=O)NO)cc2)cc1 [Compound 33, (S)-3-(4′-Ethoxybiphenylcarbonyl)-N-hydroxythiazolidinesulfone-2-carboxamide]
MIC E. coli tolC (E. coli tolC): ≤ 0.06 mg/L
MIC E. coli (2) (E. coli (2)): >64
MIC P. aerug. Hypersuc (P. aerug. Hypersuc): 2 mg/L (≈ 4.95 µM)
MIC P. aerug. (2) (P. aerug. (2)): 4-16
inhibition at 0.1 µg/mL (P. ae LpxC enzyme): 12%
MIC H. influen. (H. influen.): 16 mg/L (≈ 39.6 µM)
MIC K. pneu. (K. pneu.): 32 mg/L (≈ 79.1 µM)

CCOc1ccc(-c2ccc(C(=O)NC(C(=O)NO)C(F)(F)F)cc2)cc1 (racemic) [Compound 22, DL-4′-Ethoxy-biphenyl-4-carboxylic acid (2,2,2-trifluoro-1-hydroxycarbamoyl-ethyl)-amide]
MIC E. coli tolC (E. coli tolC): 0.25 mg/L (≈ 0.654 µM)
MIC E. coli (2) (E. coli (2)): 2
MIC P. aerug. Hypersuc (P. aerug. Hypersuc): 0.5 mg/L (≈ 1.31 µM)
MIC P. aerug. (2) (P. aerug. (2)): 16-32
inhibition at 0.1 µg/mL (P. ae LpxC enzyme): < 10%
MIC H. influen. (H. influen.): 0.5 mg/L (≈ 1.31 µM)
MIC K. pneu. (K. pneu.): 1 mg/L (≈ 2.62 µM)

CCCc1ccc(-c2ccc(C(=O)N3CC[C@@H](OC)[C@H]3C(=O)NO)cc2)cc1 [Compound 8]
MIC E. coli tolC (E. coli tolC): 32 mg/L (≈ 83.7 µM)
MIC E. coli (2) (E. coli (2)): >64
MIC P. aerug. Hypersuc (P. aerug. Hypersuc): > 64 mg/L
MIC P. aerug. (2) (P. aerug. (2)): >64
inhibition at 10 µg/mL (P. ae LpxC enzyme; @10 μg/ml): 21%
MIC H. influen. (H. influen.): 64 mg/L (≈ 167 µM)
MIC K. pneu. (K. pneu.): > 64 mg/L

CCCc1ccc(-c2ccc(C(=O)N3CCS(=O)(=O)[C@H]3C(=O)NO)cc2)cc1 [Compound 15, (S)-N-Hydroxy-3-(4′-propylbiphenylcarbonyl)thiazolidine-sulfone-2-carboxamide]
MIC E. coli tolC (E. coli tolC): 2 mg/L (≈ 4.97 µM)
MIC E. coli (2) (E. coli (2)): 16
MIC P. aerug. Hypersuc (P. aerug. Hypersuc): 2 mg/L (≈ 4.97 µM)
MIC P. aerug. (2) (P. aerug. (2)): 8
inhibition at 0.1 µg/mL (P. ae LpxC enzyme): 41%
MIC H. influen. (H. influen.): 32 mg/L (≈ 79.5 µM)
MIC K. pneu. (K. pneu.): 4 mg/L (≈ 9.94 µM)
